Measurements taken from patent US9492418B2, “Inhibitors of PFKFB3 for cancer therapy” (Board of Supervisors of Louisiana State University And …, priority 2011, dated 2016).

Legend:
human PFKFB3 [1] = molecular target: T1, human PFKFB3 (Homo sapiens, UniProt Q16875); experiment: Biochemical throughput screening of NCI Diversity Set II and steady-state inhibition kinetics; design: 443 amino acid residues of the full-length protein of 520 residues; 6xHis; made in house; settings: against F-6-P and ATP
Experimental: To generate a framework of actives and non-actives for virtual screening, a throughput study of 1,364 NCI compounds was carried out. The inhibition extent of 10 μM of each compound, in substrate saturation conditions, was quantified and the results of the top 50 compounds are shown in FIG. 1. An arbitrary cutoff was chosen at 75% inhibition to describe compounds that were to be considered ‘potential’ actives. Based on this cutoff, 10 compounds were identified from the original 1,364.
To select the true positives, the 10 potential actives were subsequently tested for specificity for the F-6-P site, because the virtual screening was targeted for the F-6-P site. Using conventional steady state inhibition kinetics, 6 compounds were selected as the ‘true actives’ (T-actives), and these six compounds are shown in FIG. 3.
The recombinant human PFKFB3 was expressed and purified as previously described.[20] The 1,364 individual compounds of NCI's Diversity Set II were acquired from the NCI.
The 2-kinase activity assay for throughput screening was performed using a F-2,6-P2 assay modified for 96-well plates from the conventional method.[21] […] The reactions of seconds step were started by adding 0.5 mM sodium pyrophosphate (PPi) and were then measured for changes in absorbance at 340 nm over a period of 30 minutes. […]

human PFKFB3 [2] = molecular target: T1, human PFKFB3; experiment: 2-Kase assay and kinetic analysis (enzyme-coupled Fru-2,6-BP assay); format: biochemical; design: 443 amino acid residues of the full-length protein of 520 residues; 6xHis; made in house; host or cells: Escherichia coli BL21(DE3) pLysS; settings: for Inhibition (type): versus Fru-6-P
Experimental: To determine steady-state initial reaction rates, the 2-Kase reactions were performed first and the Fru-2,6-BP produced was measured by a conventional enzyme-coupled kinetics assay as described previously. The compounds, N4A and RBC2 came from the National Cancer Institute as indicated in Example 1. […] Initial rates of decrease in absorbance (Abs) at 340 nm were corrected with the rate of the control reaction in which no Fru-2,6-BP was present. Negative controls were carried out in the absence of enzyme and positive controls indicate the reaction in the presence of enzyme without inhibitor compounds. […] IC50 values were determined in quadruplicate. For the kinetic studies, concentrations of one of substrate and inhibitor were varied, and decrease in absorbance at 340 nm was measured. The inhibition patterns were analyzed using the program written by Cleland, in which Ki is the dissociation constants for the inhibitor from enzyme-inhibitor complex. For Selectivity studies, the 2-Kase assays were performed first and the F-2,6-P2 produced was measured by an enzyme coupled kinetics assay as described above. The His6-tagged PFKFB isoforms, PFKFB1, PFKFB2, and PFKFB4 were expressed in Escherichia coli C41(DE3) and purified using Ni-NTA affinity columns.

T47D = experiment: Cell growth inhibition; format: cell-based; settings: Homo sapiens
Experimental: (§1) HeLa and T47D cell lines were cultured in a 10% CO2 humidified atmosphere at 37° C. as exponentially growing monolayers in Dulbecco's modified Eagle's medium (DMEM) with glutamax (Invitrogen), supplemented with 10% fetal calf serum (Invitrogen) and penicillin/streptomycin (100 U/ml and 100 μg/ml). The human cervical carcinoma cell line, HeLa, was kindly provided by Dr. J. Kim (Louisiana State University) and the human breast carcinoma cell line, T47D, was obtained from the American Type Culture Collection (Manassas, Va.).
Cell growth inhibition was determined by an XTT-based in-vitro toxicology assay (Sigma-Aldrich) or trypan blue staining. […] After 36 hours of incubation with either vehicle or compounds, cells were trypsinized and cell viability was determined by the trypan blue exclusion assay using a hemacytometer. […] After the appropriate treatment described above, cells were incubated with 0.1 mg/ml of 2,3-bis(2-methoxy-4-nitro-5-sulfophenyl)-5-[(phenylamino)carbonyl]-2H-tetrazolium hydroxide (XTT) for 4 hours, and then cell number was determined by the absorbance at 470 nm, which is proportional to the number of cells that remained attached to the plate. […] The appearance of apoptotic or necrotic cells was determined by flow cytometric analysis of cells double stained with Annexin V-FITC and propidium iodide (PI). […]

MCF7 = experiment: Cell growth inhibition; format: cell-based; settings: Homo sapiens
Experimental: Cell growth inhibition was determined by an XTT-based in-vitro toxicology assay (Sigma-Aldrich) or trypan blue staining. Cells were plated at a density of 3.5×10^4 per well in a 24-well plate in DMEM containing 10% FCS. These cells were allowed to attach for 24 hours, and the media were replaced with fresh media containing either vehicle (dimethyl sulfoxide) or appropriate concentrations of test compounds. After 36 hours of incubation with either vehicle or compounds, cells were trypsinized and cell viability was determined by the trypan blue exclusion assay using a hemacytometer. For the XTT assay, cells were seeded into 96-well cell culture plates at a density of 0.6×10^4 per well. After the appropriate treatment described above, cells were incubated with 0.1 mg/ml of 2,3-bis(2-methoxy-4-nitro-5-sulfophenyl)-5-[(phenylamino)carbonyl]-2H-tetrazolium hydroxide (XTT) for 4 hours, and then cell number was determined by the absorbance at 470 nm, which is proportional to the number of cells that remained attached to the plate. GI50s were calculated as the inhibitor concentration needed for 50% of vehicle-treated cell growth. The appearance of apoptotic or necrotic cells was determined by flow cytometric analysis of cells double stained with Annexin V-FITC and propidium iodide (PI). […]

PFKFB2 = molecular target: T2, PFKFB2 (Homo sapiens, UniProt O60825); experiment: 2-Kase selectivity assay on PFKFB isoforms; format: biochemical; settings: at twice the IC50 for PFKFB3 (N4A=6 μM, YN1=1.3 μM)
T2 construct: His6; made in house; host or cells: Escherichia coli C41(DE3)
Experimental: (§2) To determine steady-state initial reaction rates, the 2-Kase reactions were performed first and the Fru-2,6-BP produced was measured by a conventional enzyme-coupled kinetics assay as described previously. The compounds, N4A and RBC2 came from the National Cancer Institute as indicated in Example 1. […] Initial rates of decrease in absorbance (Abs) at 340 nm were corrected with the rate of the control reaction in which no Fru-2,6-BP was present. Negative controls were carried out in the absence of enzyme and positive controls indicate the reaction in the presence of enzyme without inhibitor compounds. The percentage of Inhibitory activity was calculated according to the formula: % inhibition=100×[1−(Absnegative control−Abscompound)/(Absnegative control−Abspositive control)]. IC50 values were determined in quadruplicate. For the kinetic studies, concentrations of one of substrate and inhibitor were varied, and decrease in absorbance at 340 nm was measured. The inhibition patterns were analyzed using the program written by Cleland, in which Ki is the dissociation constants for the inhibitor from enzyme-inhibitor complex. For Selectivity studies, the 2-Kase assays were performed first and the F-2,6-P2 produced was measured by an enzyme coupled kinetics assay as described above. The His6-tagged PFKFB isoforms, PFKFB1, PFKFB2, and PFKFB4 were expressed in Escherichia coli C41(DE3) and purified using Ni-NTA affinity columns.

PFKFB4 = molecular target: T3, PFKFB4 (Homo sapiens, UniProt Q16877); experiment: 2-Kase selectivity assay on PFKFB isoforms; format: biochemical; settings: at twice the IC50 for PFKFB3 (N4A=6 μM, YN1=1.3 μM)
T3 construct: His6; made in house; host or cells: Escherichia coli C41(DE3)
Experimental: as §2

PFKFB1 = molecular target: T4, PFKFB1 (Homo sapiens, UniProt P16118); experiment: 2-Kase selectivity assay on PFKFB isoforms; format: biochemical; settings: at twice the IC50 for PFKFB3 (N4A=6 μM, YN1=1.3 μM)
T4 construct: His6; made in house; host or cells: Escherichia coli C41(DE3)
Experimental: as §2

HeLa cells [3] = experiment: Flow-cytometric analysis of cell death (Annexin V-FITC / PI); format: cell-based, human
Experimental: (§3) Cell growth inhibition was determined by an XTT-based in-vitro toxicology assay (Sigma-Aldrich) or trypan blue staining. Cells were plated at a density of 3.5×10^4 per well in a 24-well plate in DMEM containing 10% FCS. These cells were allowed to attach for 24 hours, and the media were replaced with fresh media containing either vehicle (dimethyl sulfoxide) or appropriate concentrations of test compounds. After 36 hours of incubation with either vehicle or compounds, cells were trypsinized and cell viability was determined by the trypan blue exclusion assay using a hemacytometer. For the XTT assay, cells were seeded into 96-well cell culture plates at a density of 0.6×10^4 per well. After the appropriate treatment described above, cells were incubated with 0.1 mg/ml of 2,3-bis(2-methoxy-4-nitro-5-sulfophenyl)-5-[(phenylamino)carbonyl]-2H-tetrazolium hydroxide (XTT) for 4 hours, and then cell number was determined by the absorbance at 470 nm, which is proportional to the number of cells that remained attached to the plate. GI50s were calculated as the inhibitor concentration needed for 50% of vehicle-treated cell growth. The appearance of apoptotic or necrotic cells was determined by flow cytometric analysis of cells double stained with Annexin V-FITC and propidium iodide (PI). Apoptotic and necrotic cells were distinguished on the basis of double-labeling for Annexin V-FITC (Sigma-Aldrich) and PI, a membrane-impermeable DNA stain. Floating and freshly trypsinized cells were pooled, washed twice in binding buffer, and processed following manufacturer's instructions. The fluorescence of samples were analyzed by flow cytometry (FACSCalibur®, Becton Dickinson Immunocytometry, San Jose, Calif.) using the CellQuest (BD Bioscience, Immunocytometry Systems, San Jose, Calif., USA) software.

HeLa cells [4] = experiment: Soft agar colony formation; format: cell-based, human
Experimental: HeLa cell colony formation was determined by soft agar assay. Cells (2×10^3) were mixed in DMEM medium containing 0.35% agarose and varying concentrations of N4A or YN1. Then the cell mixture was added on a layer of 0.6% concentration of bottom agar in 24 well plate and allowed to grow for three weeks at 37° C. under 5% CO2. Fresh medium containing the inhibitors or vehicle (DMSO) was changed every four days. Colonies of 50 cells or more were counted after three weeks. The experiments were repeated at least five times.

HeLa cells [5] = experiment: Cellular Fru-2,6-BP level determination; format: cell-based, human; settings: 25 μM, 8 hour exposure
Experimental: HeLa cells were plated at a density of 2.5×10^5 in a 6-well plate in DMEM containing 10% FCS. The media were replaced with fresh DMEM containing either vehicle (dimethyl sulfoxide) or 25 μM of inhibitor the following day. After 0, 4, 8, 12, 24, or 48 hours of incubation with each inhibitor, media samples were collected for measuring the lactate secretion levels using a lactate oxidase-based assay kit (Sigma-Aldrich), and the lactate concentration was normalized to the total cellular protein concentration. The Fru-2,6-BP level was determined with collected cells at times of 0, 4, 8, 12, 24, or 48 hours after the treatment, using the method described previously.

HeLa and T47D cells = experiment: Cell growth inhibition (XTT or trypan blue); format: cell-based, human; settings: for cell survival compared to unexposed cells: 25 μM
Experimental: as §1
as §3, with “Apoptotic and necrotic cells were distinguished on the basis of double-labeling for Annexin V-FITC (Sigma-Aldrich) and PI, a membrane-impermeable DNA stain. Floating and freshly trypsinized cells were pooled, washed twice in binding buffer, and processed following manufacturer's instructions.” left out

T1 sequence (Q16875 whole entry): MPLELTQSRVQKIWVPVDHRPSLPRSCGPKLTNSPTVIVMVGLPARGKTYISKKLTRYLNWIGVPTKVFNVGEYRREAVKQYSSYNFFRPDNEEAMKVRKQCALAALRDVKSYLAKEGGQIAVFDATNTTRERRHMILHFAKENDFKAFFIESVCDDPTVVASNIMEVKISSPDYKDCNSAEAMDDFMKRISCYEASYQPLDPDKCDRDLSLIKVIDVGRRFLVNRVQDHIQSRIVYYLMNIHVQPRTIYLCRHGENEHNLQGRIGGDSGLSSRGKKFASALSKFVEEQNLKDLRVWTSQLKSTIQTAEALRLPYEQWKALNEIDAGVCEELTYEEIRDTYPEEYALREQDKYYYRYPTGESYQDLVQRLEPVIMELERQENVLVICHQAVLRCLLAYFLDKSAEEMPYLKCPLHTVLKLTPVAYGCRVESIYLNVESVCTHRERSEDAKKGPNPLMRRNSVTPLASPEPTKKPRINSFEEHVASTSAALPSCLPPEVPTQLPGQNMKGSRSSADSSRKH
T3 sequence (Q16877 whole entry, canonical isoform): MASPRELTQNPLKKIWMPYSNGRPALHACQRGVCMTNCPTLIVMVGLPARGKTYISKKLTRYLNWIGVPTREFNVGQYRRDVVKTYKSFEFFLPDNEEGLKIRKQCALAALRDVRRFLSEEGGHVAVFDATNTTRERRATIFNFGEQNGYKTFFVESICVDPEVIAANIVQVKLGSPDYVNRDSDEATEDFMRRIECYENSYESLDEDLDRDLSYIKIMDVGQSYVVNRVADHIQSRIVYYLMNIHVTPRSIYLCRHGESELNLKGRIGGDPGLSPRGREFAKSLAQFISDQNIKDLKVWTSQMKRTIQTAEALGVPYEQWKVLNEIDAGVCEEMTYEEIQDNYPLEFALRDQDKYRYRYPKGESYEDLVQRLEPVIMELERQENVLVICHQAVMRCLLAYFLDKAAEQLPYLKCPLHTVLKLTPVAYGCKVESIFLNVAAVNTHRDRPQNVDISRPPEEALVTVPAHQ
T2 sequence (O60825 whole entry, canonical isoform): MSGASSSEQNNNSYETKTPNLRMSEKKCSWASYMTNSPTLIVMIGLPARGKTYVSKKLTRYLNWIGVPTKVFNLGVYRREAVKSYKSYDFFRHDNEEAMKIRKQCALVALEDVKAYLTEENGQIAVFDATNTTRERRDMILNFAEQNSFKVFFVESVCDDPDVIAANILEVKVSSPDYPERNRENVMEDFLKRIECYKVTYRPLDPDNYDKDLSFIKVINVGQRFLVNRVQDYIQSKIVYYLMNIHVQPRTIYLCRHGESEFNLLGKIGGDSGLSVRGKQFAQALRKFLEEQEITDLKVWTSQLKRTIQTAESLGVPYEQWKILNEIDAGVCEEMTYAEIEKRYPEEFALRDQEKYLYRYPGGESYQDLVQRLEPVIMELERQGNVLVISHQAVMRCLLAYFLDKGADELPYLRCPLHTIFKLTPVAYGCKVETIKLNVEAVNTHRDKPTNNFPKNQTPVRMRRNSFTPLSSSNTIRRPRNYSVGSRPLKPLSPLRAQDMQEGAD
T4 sequence (P16118 whole entry, canonical isoform): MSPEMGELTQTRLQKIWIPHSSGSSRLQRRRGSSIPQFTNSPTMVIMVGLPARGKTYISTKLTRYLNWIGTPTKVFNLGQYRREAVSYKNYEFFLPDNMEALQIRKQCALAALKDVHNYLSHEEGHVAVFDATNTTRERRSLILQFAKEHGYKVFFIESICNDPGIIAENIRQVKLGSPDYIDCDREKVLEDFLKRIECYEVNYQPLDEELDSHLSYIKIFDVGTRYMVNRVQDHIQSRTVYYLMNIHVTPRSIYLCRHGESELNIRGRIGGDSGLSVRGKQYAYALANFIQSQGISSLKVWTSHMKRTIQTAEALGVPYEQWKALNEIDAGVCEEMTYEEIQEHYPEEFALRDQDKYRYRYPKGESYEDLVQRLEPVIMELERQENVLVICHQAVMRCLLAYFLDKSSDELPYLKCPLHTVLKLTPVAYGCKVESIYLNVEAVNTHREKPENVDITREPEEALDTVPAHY

| inhibition pattern (human PFKFB3 [1]) | GI50 (T47D) | GI50 (MCF7) | GI50 (HeLa and T47D cells; Homo sapiens, 36 h, cell line not stated in Table 1 (HeLa and T47D tested)) | SMILES | Inhibition (type) (human PFKFB3 [2]) | inhibition at 10 µM (human PFKFB3 [2]; 10 μM, substrate-saturating conditions, not affected by 0.1% Tween-20) | IC50 (human PFKFB3 [2]; PFKFB3 2-kinase activity) | Ki (human PFKFB3 [2]; competitive against Fru-6-P) | percent inhibition of PFKFB2 (PFKFB2) | percent inhibition of PFKFB4 (PFKFB4) | percent inhibition of PFKFB1 (PFKFB1) | type of cell death at low concentration (HeLa cells [3]; 25 μM) | type of cell death induced (HeLa cells [3]; 25 μM and 50 μM) | type of cell death at higher concentration (HeLa cells [3]; 50 μM) | inhibition at 25 µM (HeLa cells [4]; Homo sapiens, 504 h, soft agar, 25 μM, 3 weeks, read-out: colony formation inhibited) | effect on colony formation (HeLa cells [4]; soft agar, 25, 50 and 100 μM) | reduction of Fru-2,6-BP (ratio to control) (HeLa cells [5]) | cell survival compared to unexposed cells (HeLa and T47D cells) |
| --- | --- | --- | --- | --- | --- | --- | --- | --- | --- | --- | --- | --- | --- | --- | --- | --- | --- | --- |
| competitive inhibition | 3500 nM | 4400 nM |  | CCOC(=O)C=C(C)Sc1cc(O)c2ccccc2c1O (stereo in doubt) [RBC2, (Z)-ethyl 3-((1,4-dihydroxynaphthalen-2-yl)thio)but-2-enoate] | Competitive |  |  |  |  |  |  |  |  |  |  |  |  |  |
|  |  |  |  | O=c1cc(-c2ccc(O)cc2)oc2c(O)c(O)c(O)c(O)c12 [Compound N4A, 5,6,7,8-tetrahydroxy-2-(4-hydroxyphenyl)chromene-4-one] | competitive inhibitor against Fru-6-P | > 65% | 2970 ± 160 nM | 1290 ± 260 nM | less than 50% | less than 50% | less than 50% | cells were found to be prone to apoptosis | induced both apoptotic and necrotic cell death | death by necrosis was significantly increased | 64% | significantly inhibited colony formation | approximately 20% | significant reduction in cell survival |
|  |  |  | 2700 nM | CCOC(=O)c1cc2ccc(O)cc2oc1=O [YZ9, ethyl 7-hydroxy-2-oxochromene-3-carboxylate] |  |  |  |  |  |  |  |  |  |  |  |  |  | significant reduction in cell survival |
